Key:
[1] = calculated with VOIDOO; ref Saxena et al. 1997; cited from earlier work
[2] = test system: BChE and AChE; details: ref Saxena et al. 1997; cited from earlier work
[3] = target: butyrylcholinesterase (Equus caballus, UniProt P81908); assay: Inhibition constant; format: biochemical, equine; details: BChE, 100 µM butyrylthiocholine, 2 % methanol, 25 °C, pH 7.5
Sequence of butyrylcholinesterase (P81908 whole entry): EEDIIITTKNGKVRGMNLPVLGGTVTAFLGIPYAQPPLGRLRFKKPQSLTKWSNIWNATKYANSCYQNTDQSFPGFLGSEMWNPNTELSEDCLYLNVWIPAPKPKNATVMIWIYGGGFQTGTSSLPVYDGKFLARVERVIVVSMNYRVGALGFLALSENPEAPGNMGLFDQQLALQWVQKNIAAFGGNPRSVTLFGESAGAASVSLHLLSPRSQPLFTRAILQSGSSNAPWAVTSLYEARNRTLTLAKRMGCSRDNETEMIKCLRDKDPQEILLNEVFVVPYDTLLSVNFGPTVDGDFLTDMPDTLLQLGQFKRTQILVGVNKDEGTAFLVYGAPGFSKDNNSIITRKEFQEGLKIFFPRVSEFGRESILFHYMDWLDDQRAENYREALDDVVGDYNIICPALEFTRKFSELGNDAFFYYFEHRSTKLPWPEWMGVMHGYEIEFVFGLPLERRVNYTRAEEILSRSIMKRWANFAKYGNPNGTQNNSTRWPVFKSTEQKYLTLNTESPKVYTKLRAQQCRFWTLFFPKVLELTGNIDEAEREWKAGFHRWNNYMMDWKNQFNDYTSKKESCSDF

Question: What does the source list for `CCN(CC)C(C)CN1c2ccccc2Sc2ccccc21` (centres unmarked) [ethopropazine]?
Answer: van der Waals volume [1]: 317.6 Å^3; Difference in the KI value between BChE and AChE [2]: 9000 fold

Question: For `O=C(N[C@@H](Cc1c[nH]c2ccccc12)C(=O)O)OCC1c2ccccc2-c2ccccc21` [Fmoc-Trp-O^−], which Ki [3] is on record?
Answer: 193 ± 21 µM

Question: Which Ki [3] does the source give for `NCCCC[C@H](NC(=O)OCC1c2ccccc2-c2ccccc21)C(=O)O` [Fmoc-Lys-O^−] here?
Answer: 150 ± 10 µM

Question: For `O=C(N[C@@H](Cc1ccc(O)cc1)C(=O)O)OCC1c2ccccc2-c2ccccc21` [Fmoc-Tyr-O^−], which Ki [3] is on record?
Answer: 307 ± 13 µM

Question: Which Ki [3] does the source give for `CC[C@H](C)[C@H](NC(=O)OCC1c2ccccc2-c2ccccc21)C(=O)O` [Fmoc-Ile-O^−] here?
Answer: 194 ± 13 µM

Question: Which Ki [3] does the source give for `NCCCC[C@H](NC(=O)OCc1ccccc1)C(=O)O` [Cbz-Lys-O^−] here?
Answer: 1540 ± 502 µM

Question: Which Ki [3] does the source give for `CC(C)[C@H](NC(=O)OCC1c2ccccc2-c2ccccc21)C(=O)O` [Fmoc-Val-O^−] here?
Answer: 313 ± 14 µM

Question: Which Ki [3] does the source give for `CC(C)C[C@H](NC(=O)OCC1c2ccccc2-c2ccccc21)C(=O)O` [Fmoc-Leu-O^−] here?
Answer: 115 ± 11 µM

Question: With `CC(C)C[C@H](NC(=O)OCc1ccccc1)C(=O)O` [Cbz-Leu-O^−] as the molecule, how does the Ki [3] read?
Answer: 1150 ± 130 µM

Question: With `O=C(N[C@@H](Cc1ccccc1)C(=O)O)OCC1c2ccccc2-c2ccccc21` [Fmoc-Phe-O^−] as the molecule, how does the Ki [3] read?
Answer: 330 ± 15 µM

Source: article PMC5802362 (Amino acids, 2016)
